# PubChem BioAssay (NCI)
# Values joined by “and” are separate entries in the source; they are usually repeats but may differ in a detail not shown here. Identical values can stand only once.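 Dose response: 5 concentrations. Exposure: 48 h. Format: 96-well plates. Endpoint: linear interpolation; highest concentration if not reached. GI50: concentration for 50% inhibition of growth. TGI: total growth inhibition.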
# System: U251 CNS
# Experiment: DTP human tumour cell line panel, 48 h
Structure (SMILES),TGI,GI50
CC(=O)[O-].CC(=O)[O-].O=C(N/N=C/c1cc(Cl)cc(Cl)c1O)c1ccncc1.[Cu+2],> 100 µM,
O=C1CSC(=S)N1/N=C/c1ccc(Cl)c([N+](=O)[O-])c1,35.3 µM,
O=C(Nc1nc(=S)[nH][nH]1)C(=O)C(C(=O)c1ccc2ccccc2c1)C1OC(=O)c2ccccc21 (configuration not stated),> 100 µM,
CCCCCCCCCCSC(=N)N (tested in a mixture with another compound),3.62 µM,1.77 µM
CCOc1ccc(NC2=CC(=O)C(=O)c3ccccc32)cc1,13.1 µM,
Cc1nc(-c2nc(C)c(C(=O)NNC(=O)C[n+]3ccccc3)s2)sc1C(=O)NNC(=O)C[n+]1ccccc1,> 100 µM,
O=C1c2ccccc2C(=O)c2c(/C=C\N3CCCCC3)ccnc21,14.5 µM,
C=C1C[C@H](O)[C@H](Br)C(C)(C)[C@@]12CCC(C)=C(Cl)C2,12.2 µM,0.367 µM
Cc1ccc(S(=O)(=O)N2CCC2c2ccccc2)cc1 (configuration not stated),> 100 µM,
c1ccc(-c2n(Cc3ccc4ccccc4n3)cc[n+]2Cc2ccc3ccccc3c2)cc1,3.25 µM,0.923 µM
O=C(Nc1cccc(C(F)(F)F)c1)Nc1cccc(C(F)(F)F)c1,3.14 µM,0.509 µM
CC(C)(C)[Si](C)(C)OC1[C@@H](O[Si](C)(C)C(C)(C)C)[C@@H](CNC(=O)NC(=O)C(F)(F)F)O[C@H]1n1cnc2c(NC(=O)Nc3ccccc3)ncnc21 (some centres not stated),14.5 µM,7.4 µM
CCOC(=O)n1cc(C2=C(c3ccc(OC)c(OC)c3)COC2=O)c2ccccc21,> 100 µM,0.0536 µM
CC(=C(c1ccc(OCCN2CCCCC2)cc1)c1ccc(OCCN2CCCCC2)cc1)c1ccc(Cl)cc1,0.747 µM,0.387 µM
C=C(C)C(=O)O[C@@H]1C[C@@]2(C)O[C@@H]2C[C@H](O)/C(C)=C/[C@H]2OC(=O)C(=C)[C@@H]21,> 100 µM,
C=CC(=O)Nc1cc(Nc2nccc(-c3cn(C)c4ccccc34)n2)c(OC)cc1N(C)CCN(C)C,3.26 µM and 3.35 µM,1.63 µM and 1.71 µM
CC(=O)OC1(C)N=NC2(CCCCC2)O1 (configuration not stated),> 100 µM,
Cc1ccc(-c2nc(N3CCNCC3)c3oc(-c4ccc(C)cc4)nc3n2)cc1,3.32 µM,1.83 µM
[O-][Cl+3]([O-])([O-])[O-].[O]=[Ru]=[O].c1ccc(-c2ccccn2)nc1.c1ccc(-c2ccccn2)nc1,> 100 µM,> 100 µM
C=C1C(=O)O[C@H]2[C@H]1CC/C(CNC(=O)c1cc3ccccc3[nH]1)=C\CC[C@@]1(C)O[C@@H]21,3.26 µM,1.68 µM
Cc1cc2c(cc1C)[n+](=O)c(C(=O)c1ccccc1)c(C(F)F)n2[O-],> 100 µM,12.7 µM
COc1cc2c(cc1OC)C(Cl)C(c1ccc(F)cc1)=C2Cl (configuration not stated),26.6 µM,
CCOC(=O)C1Sc2ccccc2N=C1C (configuration not stated),> 100 µM,

# System: NCI-H460 lung
# Experiment: DTP human tumour cell line panel, 48 h
Structure (SMILES),TGI [µM],GI50 [µM]
C[C@@]1(O)CC[C@]2(C)C3CCCC3[C@H]12 (some centres not stated),> 100,
CC[C@@H](c1ccc(O)c(O)c1)[C@@H](CC)c1ccc(O)c(O)c1,62,26.1
O=C1OCC2=C1C(c1cccc(Br)c1)c1cc3c(cc1N2CCO)OCCO3 (configuration not stated),2.21,0.0588
COc1cc(-c2nn(-c3cccc(NC(=O)c4ccccc4)c3)cc2-c2ccncc2)ccc1Cl,> 33.2,0.366
Cc1cc(Nc2ccc(C)c(Cl)c2)n2nc(C(F)(F)F)nc2n1,78.7,20.9
COc1ccc(Cn2c(Br)c3c(c2Br)-c2nc(N)sc2CC3)cc1,17.3,3.88
CC(=O)[O-].CC(=O)[O-].O=C(N/N=C/c1cc(Cl)cc(Cl)c1O)c1ccncc1.[Cu+2],> 100,
O=C1CSC(=S)N1/N=C/c1ccc(Cl)c([N+](=O)[O-])c1,> 100,
O=C(Nc1nc(=S)[nH][nH]1)C(=O)C(C(=O)c1ccc2ccccc2c1)C1OC(=O)c2ccccc21 (configuration not stated),> 100,
CCCCCCCCCCSC(=N)N (tested in a mixture with another compound),6.28,2.64
CCOc1ccc(NC2=CC(=O)C(=O)c3ccccc32)cc1,6.97,
Cc1nc(-c2nc(C)c(C(=O)NNC(=O)C[n+]3ccccc3)s2)sc1C(=O)NNC(=O)C[n+]1ccccc1,> 100,
O=C1c2ccccc2C(=O)c2c(/C=C\N3CCCCC3)ccnc21,4.91,
C=C1C[C@H](O)[C@H](Br)C(C)(C)[C@@]12CCC(C)=C(Cl)C2,1.61,0.263
Cc1ccc(S(=O)(=O)N2CCC2c2ccccc2)cc1 (configuration not stated),> 100,
